Experimental data from patent US8278301B2, “2-alkylbenzoxazole carboxamides as 5HT3 modulators” (Albany Molecular Research, Inc., priority 2006, dated 2012).
Counter-ions that a name gives are not always drawn.

Key:
human 5-HT3 receptor [1] = biological target: T1, human 5-HT3 receptor (Homo sapiens, UniProt P46098); assay: Compound affinity for the human 5-HT3 receptor (Assay D), [3H]BRL 43694 radioligand binding, Cerep; set-up: host or cells: CHO cells
T1 sequence (P46098 24-478): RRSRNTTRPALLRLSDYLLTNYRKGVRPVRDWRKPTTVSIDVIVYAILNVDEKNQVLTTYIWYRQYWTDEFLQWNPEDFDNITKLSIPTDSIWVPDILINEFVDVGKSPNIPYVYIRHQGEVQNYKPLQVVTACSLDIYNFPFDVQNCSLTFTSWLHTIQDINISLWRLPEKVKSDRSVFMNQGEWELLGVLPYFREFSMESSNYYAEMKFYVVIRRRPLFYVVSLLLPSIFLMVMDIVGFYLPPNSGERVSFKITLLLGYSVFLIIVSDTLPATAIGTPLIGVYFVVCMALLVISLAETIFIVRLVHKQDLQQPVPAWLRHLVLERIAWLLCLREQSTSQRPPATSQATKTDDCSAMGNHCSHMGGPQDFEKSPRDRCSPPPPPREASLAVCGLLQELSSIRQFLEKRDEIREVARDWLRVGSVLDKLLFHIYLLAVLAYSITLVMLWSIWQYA
Description: Compound Affinity for the Human 5-HT3Receptor (Assay D)
Compounds were tested by Cerep, Le Bois l'Evêque—B.P. 1-86600 Celle, L'Evescault, France in a radioligand binding assay using the human recombinant 5-HT3 receptor (CHO cells, Hope, A. G., Peters, J. A., Brown, A. M., Lambert, J. J. and Blackburn, T. P. Brit. J. Pharmacol., 1996, 118: 1237-1245) and [^3H]BRL 43694 (ligand) with a […] at 22° C. For the above studies, the non-specific binding determinant was MDL 72222 (10 μM). The IC50 values (concentration causing a half-maximal inhibition of control specific binding) and Hill coefficients were determined by non-linear regression analysis of the competition curves using Hill equation curve fitting. The inhibition constants (Ki) were calculated from the Cheng Prusoff equation (Ki=IC50/(1+(L/KD)), where L=concentration of radioligand in the assay, and KD=affinity of the radioligand for the receptor).
(§1) In the table below, the assay in which the data were obtained is shown (as A, B. C, or D) along with the data.

mouse 5-HT3 receptor = biological target: T2, mouse 5-HT3 receptor (Mus musculus, UniProt P23979); assay: Compound affinity for the mouse 5-HT3 receptor (Assay C), [3H]-GR65630 radioligand binding, Novoscreen; settings: Assay C; single concentration 100 nM, in duplicate; [3H]-GR65630; read-out: Mouse % Inhibition @ 100 nM
T2 construct: host or cells: mouse neuroblastoma cells (N1E-155 as printed)
T2 sequence (P23979 24-489): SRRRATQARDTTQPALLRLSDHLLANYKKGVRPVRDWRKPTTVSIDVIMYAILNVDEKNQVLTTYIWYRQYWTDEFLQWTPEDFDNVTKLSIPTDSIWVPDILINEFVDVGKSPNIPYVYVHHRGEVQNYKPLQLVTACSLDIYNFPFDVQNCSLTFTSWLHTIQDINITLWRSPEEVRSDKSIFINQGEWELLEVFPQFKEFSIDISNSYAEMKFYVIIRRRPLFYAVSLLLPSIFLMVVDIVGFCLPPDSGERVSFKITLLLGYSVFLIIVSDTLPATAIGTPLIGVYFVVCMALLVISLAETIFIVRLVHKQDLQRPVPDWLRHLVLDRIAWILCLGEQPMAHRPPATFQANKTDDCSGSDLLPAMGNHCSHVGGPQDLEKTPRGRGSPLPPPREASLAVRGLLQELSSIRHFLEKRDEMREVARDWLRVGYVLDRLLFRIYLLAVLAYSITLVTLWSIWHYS
Description: Compound Affinity for the Mouse 5-HT3Receptor (Assay C)
(§2) Compounds were tested by Novoscreen Biosciences Corporation, 7170 Standard Drive, Hanover, Md. in a radioligand binding assay using the mouse 5-HT3 receptor derived from mouse neuroblastoma cells and [^3H]-GR65630 (ligand). The non-specific binding determinant was MDL 72222. Compounds were tested at a single concentration of 100 nM in duplicate. Percent inhibition is reported. In order to evaluate the relative affinity of the various compounds for the 5-HT3 receptor, N1E-155 cell lines were developed to express the target protein. For binding, these cells were homogenized, centrifuged and washed with buffer (20 mM HEPES, 150 mM NaCl, pH 7.4) then suspended in 0.5 mL of buffer and [^3H]-GR65630 added at a concentration of 3.5×10^−10 M. An initial single concentration of 10^−7 M of the test compound was then added. Incubation was carried out at room temperature for 60 minutes at 25° C. then was terminated by rapid removal of the incubation medium. Radioactivity was assessed using liquid scintillation spectrophotometry after exposure to scintillation cocktail for at least three hours. […] Ki values were then calculated from the Cheng-Prusoff equation. In all of the above binding studies the non-specific determinant was MDL-72222 (1.0 μM).
as §1

human 5-HT3 receptor [2] = biological target: T1, human 5-HT3 receptor; assay: Compound affinity for the human 5-HT3 receptor (Assay A), [3H]-GR65630 radioligand binding, MDS Pharma; set-up: host or cells: N1E-155 cell lines (so in the source)
Description: Compound Affinity for the Human 5-HT3 Receptor (Assay A)
as §2, with “tested by MDS Pharma Services—Taiwan Ltd., 158 Li—The Road, Peitou, Taipei, Taiwan 112 R.O.C. In order” for “tested by Novoscreen Biosciences Corporation, 7170 Standard Drive, Hanover, Md. in a radioligand binding assay using the mouse 5-HT3 receptor derived from mouse neuroblastoma cells and [^3H]-GR65630 (ligand). The non-specific binding determinant was MDL 72222. Compounds were tested at a single concentration of 100 nM in duplicate. Percent inhibition is reported. In order”, “for the human 5-HT3 receptor,” for “for the 5-HT3 receptor,”
as §1

[3] = Assay D, recombinant receptor in CHO cells, [3H]BRL 43694, Cheng-Prusoff, read-out: Human 5HT3 Ki
[4] = Assay A, [3H]-GR65630, Cheng-Prusoff, read-out: Human 5HT3 Ki

SMILES	Ki (human 5-HT3 receptor [1])	inhibition at 0.1 µM (mouse 5-HT3 receptor)	further results
CN1[C@@H]2CCC[C@H]1C[C@@H](NC(=O)c1cccc3oc(C(C)(C)C)nc13)C2 [Example 3, Endo-N-(9-Methyl-9-azabicyclo[3.3.1]non-3-yl)-2-tert-butylbenzoxazole-4-carboxamide]	4.7 nM	104%	–
CC(C)(C)c1nc2c(C(=O)N[C@@H]3CN4CCC3CC4)cccc2o1 [Example 4, (S)—N-(1-Azabicyclo[2.2.2]oct-3-yl)-2-tert-butylbenzoxazole-4-carboxamide]	30 nM	94.3%	–
CN1[C@@H]2CCC[C@H]1C[C@@H](NC(=O)c1cccc3oc(C4CCCC4)nc13)C2 [Example 5, Endo-N-(9-Methyl-9-azabicyclo[3.3.1]non-3-yl)-2-cyclopentylbenzoxazole-4-carboxamide Hydrochloride]	–	96.2%	Ki (human 5-HT3 receptor [2]): 2.27 nM
CN1[C@@H]2CCC[C@H]1C[C@@H](NC(=O)c1cccc3oc(C4(C)CC4)nc13)C2 [Example 7, Endo-N-(9-Methyl-9-azabicyclo[3.3.1]non-3-yl)-2-(1-methylcyclopropyl)benzoxazole-4-carboxamide Hydrochloride]	3.3 nM	96.7%	–
CC1(c2nc3c(C(=O)N[C@@H]4CN5CCC4CC5)cccc3o2)CC1 [Example 8, (S)—N-(1-Azabicyclo[2.2.2]oct-3-yl)-2-(1-methylcyclopropyl)benzoxazole-4-carboxamide Hydrochloride]	19 nM	97.6%	–
CN1[C@@H]2CCC[C@H]1C[C@@H](NC(=O)c1cccc3oc(Cc4ccccc4)nc13)C2 [Example 9, Endo-N-(9-Methyl-9-azabicyclo[3.3.1]non-3-yl)-2-benzylbenzoxazole-4-carboxamide Hydrochloride]	11 nM	94.7%	–
O=C(N[C@@H]1CN2CCC1CC2)c1cccc2oc(Cc3ccccc3)nc12 [Example 10, (S)—N-(1-Azabicyclo[2.2.2]oct-3-yl)-2-benzylbenzoxazole-4-carboxamide Hydrochloride]	–	–	Ki (human 5-HT3 receptor [1]; [3]): 21 nM
CN1[C@@H]2CCC[C@H]1C[C@@H](NC(=O)c1cccc3oc(CC4CC4)nc13)C2 [Example 11, Endo-N-(9-Methyl-9-azabicyclo[3.3.1]non-3-yl)-2-(cyclopropylmethyl)benzoxazole-4-carboxamide Hydrochloride]	8.6 nM	98.6%	–
O=C(N[C@@H]1CN2CCC1CC2)c1cccc2oc(CC3CC3)nc12 [Example 12, (S)—N-(1-Azabicyclo[2.2.2]oct-3-yl)-2-(cyclopropylmethyl)benzoxazole-4-carboxamide Hydrochloride]	26 nM	90.6%	–
CC1CC1c1nc2c(C(=O)NC3CC4CCCC(C3)N4C)cccc2o1 (stereo not drawn) [Example 13, Endo-N-(9-Methyl-9-azabicyclo[3.3.1]non-3-yl)-2-(2-methylcyclopropyl)benzoxazole-4-carboxamide Hydrochloride]	–	88.1%	Ki (human 5-HT3 receptor [2]): 5.74 nM
CN1[C@@H]2CCC[C@H]1C[C@@H](NC(=O)c1cccc3oc(C4CCC4)nc13)C2 [Example 17, Endo-N-(9-Methyl-9-azabicyclo[3.3.1]non-3-yl)-2-cyclobutylbenzoxazole-4-carboxamide Hydrochloride]	7 nM	108%	–
O=C(N[C@@H]1CN2CCC1CC2)c1cccc2oc(C3CCC3)nc12 [Example 18, (S)—N-(1-Azabicyclo[2.2.2]oct-3-yl)-2-cyclobutylbenzoxazole-4-carboxamide Hydrochloride]	7 nM	108%	–
O=C(N[C@@H]1CN2CCC1CC2)c1cc(F)cc2oc(C3CC3)nc12 [Example 19, (S)—N-(1-Azabicyclo[2.2.2]oct-3-yl)-6-fluoro-2-cyclopropylbenzoxazole-4-carboxamide Hydrochloride]	–	–	Ki (human 5-HT3 receptor [1]; [3]): 44 nM
CN1[C@@H]2CCC[C@H]1C[C@@H](NC(=O)c1cc(F)cc3oc(C4CC4)nc13)C2 [Example 20, Endo-N-(9-Methyl-9-azabicyclo[3.3.1]non-3-yl)-6-fluoro-2-cyclopropylbenzoxazole-4-carboxamide Hydrochloride]	–	–	Ki (human 5-HT3 receptor [1]; [3]): 5.4 nM
O=C(N[C@@H]1CN2CCC1CC2)c1cccc2ocnc12 [Example 22, (S)—N-(1-Azabicyclo[2.2.2]oct-3-yl)-benzoxazole-4-carboxamide Hydrochloride]	–	–	Ki (human 5-HT3 receptor [2]; [4]): 16.6 nM
CC(=O)N1CCC(c2nc3c(C(=O)N[C@H]4C[C@H]5CCC[C@@H](C4)N5C)cccc3o2)CC1 [Example 23, Endo-N-(9-methyl-9-azabicyclo[3.3.1]non-3-yl)-2-(1-acetylpiperidin-4-yl)benzoxazole-4-carboxamide Hydrochloride]	–	–	Ki (human 5-HT3 receptor [2]; [4]): 36.6 nM
CN1[C@@H]2CCC[C@H]1C[C@@H](NC(=O)c1cccc3oc(C4CCOCC4)nc13)C2 [Example 24, Endo-N-(9-methyl-9-azabicyclo[3.3.1]non-3-yl)-2-(tetrahydro-2H-pyran-4-yl)benzoxazole-4-carboxamide Hydrochloride]	–	–	Ki (human 5-HT3 receptor [2]; [4]): 17.6 nM
Cc1nc2c(C(=O)N[C@H]3C[C@H]4CCC[C@@H](C3)N4C)cccc2o1 [Example 34, Endo-N-(9-Methyl-9-azabicyclo[3.3.1]non-3-yl)-2-methylbenzoxazole-4-carboxamide]	5.5 nM	79%	–
Cc1nc2c(C(=O)N[C@@H]3CN4CCC3CC4)cccc2o1 [Example 35, (S)—N-(1-Azabicyclo[2.2.2]oct-3-yl)-2-methylbenzoxazole-4-carboxamide]	12 nM	83%	–
